Experimental data reported in PMC11413853, “Discovery of VU6007496: Challenges in the Development of an M1 Positive Allosteric Modulator Backup Candidate” (ACS Chemical Neuroscience, 2024).
Read-outs that look alike come from different tables or passages of the source.

Tests used:
human M1 = biological target: T1, human M1 (Homo sapiens, UniProt P11229); assay: Calcium mobilization assay, human M1 (agonist and PAM modes); assay type: cell-based; settings: for hM1 PAM AChmax (%) / hM1 Agonist AChmax (%): % ACh max
T1 sequence (P11229 1-460): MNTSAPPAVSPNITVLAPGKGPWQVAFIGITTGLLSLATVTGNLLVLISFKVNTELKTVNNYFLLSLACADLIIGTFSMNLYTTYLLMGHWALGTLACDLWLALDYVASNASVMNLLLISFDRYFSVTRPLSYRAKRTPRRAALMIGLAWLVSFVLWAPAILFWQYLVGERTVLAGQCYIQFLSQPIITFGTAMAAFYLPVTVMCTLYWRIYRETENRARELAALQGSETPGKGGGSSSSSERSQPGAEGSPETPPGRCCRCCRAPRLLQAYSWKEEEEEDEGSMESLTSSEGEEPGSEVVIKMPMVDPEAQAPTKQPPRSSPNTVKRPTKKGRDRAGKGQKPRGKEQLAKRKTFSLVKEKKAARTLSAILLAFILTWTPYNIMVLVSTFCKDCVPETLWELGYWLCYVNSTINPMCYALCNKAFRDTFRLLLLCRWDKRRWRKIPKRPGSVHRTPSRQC

[1] = Predicted hepatic clearance, human hepatic microsomes; assay type: in vitro ADME
Experimental: Intrinsic clearance: Human or rat hepatic microsomes (0.5 mg/mL) and 1 µM test compound were incubated in 100 mM potassium phosphate pH 7.4 buffer with 3 mM MgCl2 at 37 °C with constant shaking. After a 5 min preincubation, the reaction was initiated by the addition of NADPH (1 mM). At selected time intervals (0, 3, 7, 15, 25, and 45 min), aliquots were taken and subsequently placed into a 96-well plate containing cold acetonitrile with internal standard (50 ng/mL carbamazepine). Plates were then centrifuged at 3000 rcf (4 °C) for 10 min, and the supernatant was transferred to a separate 96-well plate and diluted 1:1 with water for LC/MS/MS analysis. The in vitro half-life ( 1/2, min, Eq. 1), intrinsic clearance (CLint, mL/min/kg, Eq. 2), and subsequent predicted hepatic clearance (CLhep, mL/min/kg, Eq. 3) was determined employing the […]
where k represents the slope from linear regression analysis of the natural log percent remaining of a test compound as a function of incubation time […]
(2) CLint = in vitroT1/2 x mg microsomes x gram liver x kg body wt ascale-up factors: of 20 (human) or 45 (rat) […]
where Qh (hepatic blood flow, mL/min/kg) is 21 (human) or 70 (rat).
LC/MS/MS Bioanalysis of Samples from Plasma Protein Binding and Intrinsic Clearance […]
Samples were analyzed on a Thermo Electron TSQ Quantum Ultra triple quad mass spectrometer (San Jose, CA) via electrospray ionization (ESI) with two Themo Electron Accella pumps (San Jose, CA), and a Leap Technologies CTC PAL autosampler (Carrboro, NC). Analytes were separated by gradient elution on a dual column system with two Thermo Hypersil Gold (2.1 x 30 mm, 1.9 µm) columns (San Jose, CA) thermostated at 40 °C. HPLC mobile phase A was 0.1% formic acid in water and mobile phase B was 0.1% formic acid in acetonitrile. The gradient started […]
for 0.2 min; returned to 10% B in 0.1 min. The total run time was 1.3 min and the HPLC flow rate was 0.8 mL/min. […]

[2] = Rat brain homogenate binding; assay type: in vitro ADME; settings: brain homogenate (1:3 brain:DPBS, w/w), pH 7.4, read-out: fu,brain (r)
Experimental: Plasma protein binding and Brain homogenate binding: Determination of fraction unbound (f u) in plasma was conducted in vitro via equilibrium dialysis using HTDialysis (HTD) membrane plates. The top half of the plate was filled with 100 uL of Dubelco’s Phosphate Buffered Saline, pH 7.4 (DPBS). Compounds were diluted into plasma from each species (5 µM final concentration), which was aliquoted in triplicate to the ‘bottom half’ of the prepared HTD plate wells. The HTD plate was sealed and incubated for 6 hours at 37 °C. Following incubation, each well (both top and bottom halves) were transferred (20 µL) to the corresponding wells of a 96-shallow-well (V-bottom) plate. The daughter plates were then matrix-matched (DPBS side wells received equal volume of plasma, and plasma side wells received equal volume of DPBS), and extraction solution (120 µL; acetonitrile containing 50 nM carbamazepine as IS) was added to all wells of both daughter plates to precipitate protein and extract test article. The plates were then sealed and centrifuged (3500 rcf) for 10 minutes at ambient temperature. […]
The unbound fraction (f u) was calculated following the equation below, and mean values for each species were calculated from 3 replicates.
A similar approach was used to determine the degree of brain homogenate binding, which employed the same methodology and procedure with the following modifications: 1) a final compound concentration of 1 μM was used, 2) naïve rat brains were homogenized in DPBS (1:3 composition of brain: DPBS, w/w) using a Mini-Bead Beater™ machine in order to obtain brain homogenate, which was then treated in the same manner as the plasma samples in the previously described plasma protein binding assay. Fraction unbound for both plasma and brain samples was determined using Equation 4. […]
The diluted fraction unbound (fu2) in brain was calculated in the same manner by using brain homogenate rather than plasma. Undiluted fraction unbound for the brain was calculated using […]

[3] = PAM mode, read-out: hM1 PAM EC50
[4] = agonist mode, read-out: hM1 Agonist EC50
[5] = hM1 PAM EC50, PAM mode, read-out: hM1 PAM pEC50 (converted)
[6] = agonist mode, read-out: human M1 agonism EC50

SMILES	hM1 PAM AChmax (%) (human M1; PAM mode)	EC50 (human M1; [3])	hM1 Agonist AChmax (%) (human M1; agonist mode)	EC50 (human M1; [4])	EC50 (human M1; [5])	Predicted CLhep, human [1]	fraction unbound at 6 h, 1 µM [2]	EC50 (human M1; [6])
Cn1ccc(-c2ccc(Cc3cc(C(=O)NC4CCOCC4)nc4ccn(C)c34)cc2)n1 [compound 11]	80%	228 nM	24%	> 10000 nM	166 nM	12 mL/min/kg	0.038	–
Cn1ccc(-c2ccc(Cc3cc(C(=O)NC4CCOCC4)nc4ccsc34)cc2)n1 [compound 12]	73%	149 nM	38%	3060 nM	132 nM	7.5 mL/min/kg	0.011	3100 nM
Cn1ccc2nc(C(=O)NC3CCOCC3)cc(Cc3ccc(-c4cc[nH]n4)cc3)c21 [compound 24]	73%	144 nM	36%	–	–	12.8 mL/min/kg	0.025	2100 nM
